According to ChEMBL document CHEMBL3813672, “Discovery of anti-cancer activity for benzo[1,2,4]triazin-7-ones: Very strong correlation to pleurotin and thioredoxin reductase inhibition” (Bioorg Med Chem, 2016):
pIC50: −log10 of the molar value.

Columns and labels:
CCRF-CEM = test: Growth inhibition of human CCRF-CEM cells assessed as cell growth at 10 uM incubated for 48 hrs by sulforhodamine B assay relative to control; assay type: functional; conditions: read-out: Activity
[1] = Growth inhibition of human HL-60(TB) cells assessed as cell growth at 10 uM incubated for 48 hrs by sulforhodamine B assay relative to control; assay type: functional; conditions: HL-60, 48 h, read-out: Activity
SR = test: Growth inhibition of human SR cells assessed as cell growth at 10 uM incubated for 48 hrs by sulforhodamine B assay relative to control; assay type: functional; conditions: read-out: Activity
[2] = Growth inhibition of human HOP62 cells assessed as cell growth at 10 uM incubated for 48 hrs by sulforhodamine B assay relative to control; assay type: functional; conditions: HOP-62, 48 h, read-out: Activity
[3] = Growth inhibition of human HOP92 cells assessed as cell growth at 10 uM incubated for 48 hrs by sulforhodamine B assay relative to control; assay type: functional; conditions: HOP-92, 48 h, read-out: Activity
NCI-H226 = test: Growth inhibition of human NCI-H226 cells assessed as cell growth at 10 uM incubated for 48 hrs by sulforhodamine B assay relative to control; assay type: functional; conditions: NCI-H226, 48 h, read-out: Activity
NCI-H23 = test: Growth inhibition of human NCI-H23 cells assessed as cell growth at 10 uM incubated for 48 hrs by sulforhodamine B assay relative to control; assay type: functional; conditions: NCI-H23, 48 h, read-out: Activity
NCI-H322M = test: Growth inhibition of human NCI-H322M cells assessed as cell growth at 10 uM incubated for 48 hrs by sulforhodamine B assay relative to control; assay type: functional; conditions: read-out: Activity
NCI-H522 = test: Growth inhibition of human NCI-H522 cells assessed as cell growth at 10 uM incubated for 48 hrs by sulforhodamine B assay relative to control; assay type: functional; conditions: NCI-H522, 48 h, read-out: Activity
[4] = Growth inhibition of human COLO205 cells assessed as cell growth at 10 uM incubated for 48 hrs by sulforhodamine B assay relative to control; assay type: functional; conditions: COLO 205, 48 h, read-out: Activity
KM12 = test: Growth inhibition of human KM12 cells assessed as cell growth at 10 uM incubated for 48 hrs by sulforhodamine B assay relative to control; assay type: functional; conditions: KM12, 48 h, read-out: Activity
[5] = Cytotoxicity against human DU145 cells assessed as reduction in cell viability after 72 hrs by MTT assay; assay type: functional, cell-based; conditions: DU-145, 72 h
[6] = Quasi-reversible one electron redox potential in dichloromethane containing 0.1 M TBAP assessed as redox potential during 0/-1 redox transition at 2 mmol measured at 100 mV/s in presence of Fc/Fc by cyclic voltammetry; assay type: physicochemical
[7] = Quasi-reversible one electron redox potential in dichloromethane containing 0.1 M TBAP assessed as assessed as redox potential during -1/-2 redox transition at 2 mmol measured at 100 mV/s in presence of Fc/Fc by cyclic voltammetry; assay type: physicochemical
[8] = Growth inhibition of human SF268 cells assessed as cell growth at 10 uM incubated for 48 hrs by sulforhodamine B assay relative to control; assay type: functional; conditions: SF-268, 48 h, read-out: Activity
[9] = Growth inhibition of human SF539 cells assessed as cell growth at 10 uM incubated for 48 hrs by sulforhodamine B assay relative to control; assay type: functional; conditions: SF-539, 48 h, read-out: Activity
[10] = Growth inhibition of human SNB75 cells assessed as cell growth at 10 uM incubated for 48 hrs by sulforhodamine B assay relative to control; assay type: functional; conditions: SNB-75, 48 h, read-out: Activity
U-251 = test: Growth inhibition of human U251 cells assessed as cell growth at 10 uM incubated for 48 hrs by sulforhodamine B assay relative to control; assay type: functional; conditions: U-251, 48 h, read-out: Activity
[11] = Growth inhibition of human LOXIMVI cells assessed as cell growth at 10 uM incubated for 48 hrs by sulforhodamine B assay relative to control; assay type: functional; conditions: LOX IMVI, read-out: Activity
MDA-MB-435 = test: Growth inhibition of human MDA-MB-435 cells assessed as cell growth at 10 uM incubated for 48 hrs by sulforhodamine B assay relative to control; assay type: functional; conditions: MDA-MB-435, 48 h, read-out: Activity
[12] = Growth inhibition of human OVCAR3 cells assessed as cell growth at 10 uM incubated for 48 hrs by sulforhodamine B assay relative to control; assay type: functional; conditions: OVCAR-3, 48 h, read-out: Activity
[13] = Growth inhibition of human OVCAR4 cells assessed as cell growth at 10 uM incubated for 48 hrs by sulforhodamine B assay relative to control; assay type: functional; conditions: OVCAR-4, 48 h, read-out: Activity
[14] = Growth inhibition of human OVCAR8 cells assessed as cell growth at 10 uM incubated for 48 hrs by sulforhodamine B assay relative to control; assay type: functional; conditions: OVCAR-8, 48 h, read-out: Activity
NCI/ADR-RES = test: Growth inhibition of human NCI/ADR-RES cells assessed as cell growth at 10 uM incubated for 48 hrs by sulforhodamine B assay relative to control; assay type: functional; conditions: read-out: Activity
[15] = Growth inhibition of human SKOV3 cells assessed as cell growth at 10 uM incubated for 48 hrs by sulforhodamine B assay relative to control; assay type: functional; conditions: SK-OV-3, 48 h, read-out: Activity
786-0 = test: Growth inhibition of human 786-0 cells assessed as cell growth at 10 uM incubated for 48 hrs by sulforhodamine B assay relative to control; assay type: functional; conditions: 786-0, 48 h, read-out: Activity
A498 = test: Growth inhibition of human A498 cells assessed as cell growth at 10 uM incubated for 48 hrs by sulforhodamine B assay relative to control; assay type: functional; conditions: A498, 48 h, read-out: Activity
[16] = Growth inhibition of human DU145 cells assessed as cell growth at 10 uM incubated for 48 hrs by sulforhodamine B assay relative to control; assay type: functional; conditions: DU-145, 48 h, read-out: Activity
MCF7 = test: Growth inhibition of human MCF7 cells assessed as cell growth at 10 uM incubated for 48 hrs by sulforhodamine B assay relative to control; assay type: functional; conditions: MCF7, 48 h, read-out: Activity
MDA-MB-231 = test: Growth inhibition of human MDA-MB-231/ATCC cells assessed as cell growth at 10 uM incubated for 48 hrs by sulforhodamine B assay relative to control; assay type: functional; conditions: MDA-MB-231, 48 h, read-out: Activity
[17] = Growth inhibition of human Hs 578T cells assessed as cell growth at 10 uM incubated for 48 hrs by sulforhodamine B assay relative to control; assay type: functional; conditions: read-out: Activity
[18] = Growth inhibition of human BT549 cells assessed as cell growth at 10 uM incubated for 48 hrs by sulforhodamine B assay relative to control; assay type: functional; conditions: BT-549, 48 h, read-out: Activity
T47D = test: Growth inhibition of human T47D cells assessed as cell growth at 10 uM incubated for 48 hrs by sulforhodamine B assay relative to control; assay type: functional; conditions: read-out: Activity
[19] = Growth inhibition of human RXF393 cells assessed as cell growth at 10 uM incubated for 48 hrs by sulforhodamine B assay relative to control; assay type: functional; conditions: RXF 393, 48 h, read-out: Activity

## O=c1ccc2nc(-c3ccccc3)nn(-c3ccccc3)c-2c1
CCRF-CEM
  growth at 10 µM: -16.4%
[1]
  growth at 10 µM: -45.5%
SR
  growth at 10 µM: -20.2%
[2]
  growth at 10 µM: 69.5%
[3]
  growth at 10 µM: -33%
NCI-H226
  growth at 10 µM: 66.1%
NCI-H23
  growth at 10 µM: 54.4%
NCI-H322M
  growth at 10 µM: 66.2%
NCI-H522
  growth at 10 µM: -90.5%
[4]
  growth at 10 µM: -76.8%
KM12
  growth at 10 µM: 63.1%
[5]
  pIC50: 6.64
[6]
  Activity: -1.12 V
[7]
  Activity: -1.75 V
[8]
  growth at 10 µM: 70.5%
[9]
  growth at 10 µM: 105%
[10]
  growth at 10 µM: 93.2%
U-251
  growth at 10 µM: 66.2%
[11]
  growth at 10 µM: -51.6%
MDA-MB-435
  growth at 10 µM: 24.6%
[12]
  growth at 10 µM: -96.2%
[13]
  growth at 10 µM: -40.6%
[14]
  growth at 10 µM: -2.36%
NCI/ADR-RES
  growth at 10 µM: 96.2%
[15]
  growth at 10 µM: 59.1%
786-0
  growth at 10 µM: 48.6%
A498
  growth at 10 µM: 84.4%
[16]
  growth at 10 µM: -95.5%
MCF7
  growth at 10 µM: -66.7%
MDA-MB-231
  growth at 10 µM: 76.3%
[17]
  growth at 10 µM: 75.9%
[18]
  growth at 10 µM: 90.2%
T47D
  growth at 10 µM: -36.5%
[19]
  growth at 10 µM: -92.8%

## O=c1ccc2nc(C(F)(F)F)nn(-c3ccccc3)c-2c1
CCRF-CEM
  growth at 10 µM: -0.27%
[1]
  growth at 10 µM: -36.6%
SR
  growth at 10 µM: -11.3%
[2]
  growth at 10 µM: 66%
[3]
  growth at 10 µM: 35.2%
NCI-H226
  growth at 10 µM: 77.7%
NCI-H23
  growth at 10 µM: 67.7%
NCI-H322M
  growth at 10 µM: 99.8%
NCI-H522
  growth at 10 µM: -56%
[4]
  growth at 10 µM: -70.7%
KM12
  growth at 10 µM: 96.8%
[5]
  pIC50: 6.07
[6]
  Activity: -0.86 V
[7]
  Activity: -1.55 V
[8]
  growth at 10 µM: 77.4%
[9]
  growth at 10 µM: 92.8%
[10]
  growth at 10 µM: 86.5%
U-251
  growth at 10 µM: 69.7%
[11]
  growth at 10 µM: 4.3%
MDA-MB-435
  growth at 10 µM: 62.3%
[12]
  growth at 10 µM: -26.1%
[13]
  growth at 10 µM: 79.8%
[14]
  growth at 10 µM: 73.1%
NCI/ADR-RES
  growth at 10 µM: 84%
[15]
  growth at 10 µM: 79.3%
786-0
  growth at 10 µM: 22.2%
A498
  growth at 10 µM: 79.9%
[16]
  growth at 10 µM: 40.5%
MCF7
  growth at 10 µM: -49.3%
MDA-MB-231
  growth at 10 µM: 61%
[17]
  growth at 10 µM: 74%
[18]
  growth at 10 µM: 69.2%
T47D
  growth at 10 µM: -40.5%
[19]
  growth at 10 µM: -20.4%
